In patent US20240024273A1, “TOPICAL ADMINISTRATION OF 2-(DIETHYLAMINO)ETHYL 2-(4-ISOBUTYLPHENYL)PROPRIONATE FOR TREATMENT OF DISEASES” (TECHFIELDS PHARMA CO., LTD., priority 2020, published 2024):

How the values were obtained:
[1] = tested on: osteoarthritis of the knee; assay: Second Phase 2 study: WOMAC (VAS) pain subscale score; assay type: in vivo, human; conditions: for WOMAC Pain Subscale Scores, % of improvement from Oral Ibuprofen / WOMAC Pain Subscale Scores, % of improvement from Placebo / WOMAC Pain Subscale Scores, % of improvement from baseline / WOMAC Pain Subscale Scores, Changes from Baseline (LS Mean) / WOMAC Pain Subscale Scores, Different from oral ibuprofen (LS Mean) / WOMAC Pain Subscale Scores, Different from placebo (LS Mean) / WOMAC Pain Subscale Scores, Week 12 (LS Mean): Week 12
From the text: This is a Phase 2, multicenter, randomized, double blind (within dose), Ibuprofen-placebo controlled, parallel group, dose range finding study to evaluate the efficacy, safety, and PK of 2-(diethylamino)ethyl 2-(4-isobutylphenyl)propionate spray in adult subjects with clinically symptomatic OA of the knee. For subjects with bilateral knee pain, both knees will be treated, but the most symptomatic knee (ie, the most painful knee as measured by the Western Ontario and McMaster University Osteoarthritis Index [WOMAC® 3.1] pain subscale score at Screening) will be designated as the target knee for efficacy analyses. For subjects with unilateral knee pain, only the symptomatic (target) knee will be treated.
The VAS version of the WOMAC will be used for the Primary and Secondary Efficacy Endpoints. Efficacy endpoints will be assessed at Screening and Baseline (Day 1) and at the Week 2, Week 4, Week 8, and Week 12/EOS visits.
The Primary Efficacy Endpoint is the change from Baseline in the WOMAC (VAS) pain subscale score for the target knee at […] of treatment.
4.9.2. Secondary Efficacy Endpoints: • 1. Change from Baseline in the WOMAC (VAS) pain subscale score for the target knee at 2, 8, and 12 weeks of treatment; • 2. Change from Baseline in the WOMAC (VAS) stiffness subscale scores for the target knee and WOMAC (VAS) functional ability subscale scores at 2, 4, 8, and 12 weeks of treatment; • 3. Change from Baseline in the overall WOMAC (VAS) score at 2, 4, 8, and 12 weeks of treatment; • 4. Subject's global assessment of disease status of the target knee at 2, 4, 8, and 12 weeks of treatment; • 5. Subject's global assessment of response to therapy of the target knee at 2, 4, 8, and 12 weeks of treatment; • 6. Amount of rescue medication (acetaminophen) consumed per day for target knee pain.
The Primary Efficacy Endpoint is change from Baseline in the WOMAC (VAS) pain subscale score for the target knee at 4 weeks of treatment, and will be analyzed using an analysis of covariance (ANCOVA). Treatment will be included as a fixed class effect and WOMAC Baseline pain subscale score as covariates. The primary comparisons of interest will be the difference between active Group A (4.375 mg 2-(diethylamino)ethyl 2-(4-isobutylphenyl)propionate/knee) and combined placebo, active Group B (8.75 mg 2-(diethylamino)ethyl 2-(4-isobutylphenyl)propionate/knee) and combined placebo, and active Group C (17.5 mg 2-(diethylamino)ethyl 2-(4-isobutylphenyl)propionate/knee) and combined placebo.

[2] = tested on: osteoarthritis of the knee; assay: Second Phase 2 study: Investigator's assessment of response to therapy (IART); assay type: in vivo, human; conditions: Week 12; for IART: Good and Very good / IART: Poor and Very Poor / IART: fair: first 130 subjects; for IART, Good and Very good / IART, Poor and Very Poor / IART, fair: all subjects
From the text: 4.9.3. Exploratory Efficacy Endpoints: • 1. Investigator's global assessment of response to therapy of the target knee at 2, 4, 8, and 12 weeks of treatment; • 2. Change from Baseline over time in overall WOMAC (VAS) score for the target knee after the treatment is stopped for 2 weeks.

[3] = 4.375 mg/knee BID (n = 23), first 130 subjects
[4] = 8.75 mg/knee BID (n = 24), first 130 subjects
[5] = 17.5 mg/knee BID (n = 19), first 130 subjects
[6] = all subjects, 4.375 mg/knee BID, n = 49
[7] = all subjects, 8.75 mg/knee BID, n = 54
[8] = all subjects, 17.5 mg/knee BID, n = 52

For `CCN(CC)CCOC(=O)C(C)c1ccc(CC(C)C)cc1` (centres unmarked) [2-(diethylamino)ethyl 2-(4-isobutylphenyl)propionate], the “WOMAC Pain Subscale Scores, Baseline (LS Mean)” value ([1]; Baseline, 17.5 mg/knee BID (n = 19), first 130 subjects) was 64.1 mm, the “WOMAC Pain Subscale Scores, % of improvement from Oral Ibuprofen” value [1, 3] was −9.6% and the “WOMAC Pain Subscale Scores, % of improvement from Placebo” value [1, 3] was −8.7%. The “WOMAC Pain Subscale Scores, % of improvement from baseline” value [1, 3] was −41.8%, the “WOMAC Pain Subscale Scores, Changes from Baseline (LS Mean)” value (“WOMAC Pain Subscale Scores, Changes” for short) [1, 3] was −25.7 mm and the “WOMAC Pain Subscale Scores, Different from oral ibuprofen (LS Mean)” value [1, 3] was −4.0 mm. The “WOMAC Pain Subscale Scores, Different from placebo (LS Mean)” value [1, 3] was −4.3 mm, the “WOMAC Pain Subscale Scores, Week 12 (LS Mean)” value [1, 3] was 34.3 mm and the “WOMAC Pain Subscale Scores, % of improvement from Oral Ibuprofen” value [1, 4] was −13.2%. For the same molecule, the “WOMAC Pain Subscale Scores, % of improvement from Placebo” value [1, 4] was −12.3%, the “WOMAC Pain Subscale Scores, % of improvement from baseline” value [1, 4] was −45.4% and the “WOMAC Pain Subscale Scores, Changes” value [1, 4] was −27.7 mm. The “WOMAC Pain Subscale Scores, Different from oral ibuprofen (LS Mean)” value [1, 4] was −6.1 mm, the “WOMAC Pain Subscale Scores, Different from placebo (LS Mean)” value [1, 4] was −6.6 mm and the “WOMAC Pain Subscale Scores, Week 12 (LS Mean)” value [1, 4] was 33.3 mm. For the same molecule, the “WOMAC Pain Subscale Scores, % of improvement from Oral Ibuprofen” value [1, 5] was −24.3%, the “WOMAC Pain Subscale Scores, % of improvement from Placebo” value [1, 5] was −23.4% and the “WOMAC Pain Subscale Scores, % of improvement from baseline” value [1, 5] was −56.5%. For the same molecule, the “WOMAC Pain Subscale Scores, Changes” value [1, 5] was −36.2 mm, the “WOMAC Pain Subscale Scores, Different from oral ibuprofen (LS Mean)” value [1, 5] was −14.5 mm and the “WOMAC Pain Subscale Scores, Different from placebo (LS Mean)” value [1, 5] was −15.0 mm. For the same molecule, the “WOMAC Pain Subscale Scores, Week 12 (LS Mean)” value [1, 5] was 27.9 mm, the “WOMAC Pain Subscale Scores, % of improvement from Oral Ibuprofen” value [1, 6] was −0.7% and the “WOMAC Pain Subscale Scores, % of improvement from Placebo” value [1, 6] was −5.2%. For the same molecule, the “WOMAC Pain Subscale Scores, % of improvement from baseline” value [1, 6] was −41.9%, the “WOMAC Pain Subscale Scores, Changes” value [1, 6] was −25.6 mm and the “WOMAC Pain Subscale Scores, Week 12 (LS Mean)” value [1, 6] was 35.5 mm. The “WOMAC Pain Subscale Scores, % of improvement from Oral Ibuprofen” value [1, 7] was −4.9%, the “WOMAC Pain Subscale Scores, % of improvement from Placebo” value [1, 7] was −9.4% and the “WOMAC Pain Subscale Scores, % of improvement from baseline” value [1, 7] was −46.1%. The “WOMAC Pain Subscale Scores, Changes” value [1, 7] was −28.6 mm, the “WOMAC Pain Subscale Scores, Different from oral ibuprofen (LS Mean)” value [1, 7] was −3.2 mm and the “WOMAC Pain Subscale Scores, Different from placebo (LS Mean)” value [1, 7] was −6.0 mm. The “WOMAC Pain Subscale Scores, Week 12 (LS Mean)” value [1, 7] was 33.4 mm, the “WOMAC Pain Subscale Scores, % of improvement from Oral Ibuprofen” value [1, 8] was −9.8% and the “WOMAC Pain Subscale Scores, % of improvement from Placebo” value [1, 8] was −14.3%. The “WOMAC Pain Subscale Scores, % of improvement from baseline” value [1, 8] was −51.0%, the “WOMAC Pain Subscale Scores, Changes” value [1, 8] was −31.7 mm and the “WOMAC Pain Subscale Scores, Different from oral ibuprofen (LS Mean)” value [1, 8] was −6.3 mm. The “WOMAC Pain Subscale Scores, Different from placebo (LS Mean)” value [1, 8] was −9.1 mm, the “WOMAC Pain Subscale Scores, Week 12 (LS Mean)” value [1, 8] was 30.5 mm and the “IART: Good and Very good” value ([2]; 4.375 mg/knee BID (n = 23)) was 39.1%. For the same molecule, the “IART: Poor and Very Poor” value ([2]; 4.375 mg/knee BID (n = 23)) was 4.3%, the “IART: fair” value ([2]; 4.375 mg/knee BID (n = 23)) was 56.5% and the “IART: Good and Very good” value ([2]; 8.75 mg/knee BID (n = 24)) was 37.5%. The “IART: Poor and Very Poor” value ([2]; 8.75 mg/knee BID (n = 24)) was 12.5%, the “IART: fair” value ([2]; 8.75 mg/knee BID (n = 24)) was 50.0% and the “IART: Good and Very good” value ([2]; 17.5 mg/knee BID (n = 19)) was 57.9%. The “IART: Poor and Very Poor” value ([2]; 17.5 mg/knee BID (n = 19)) was 5.3%, the “IART: fair” value ([2]; 17.5 mg/knee BID (n = 19)) was 36.8% and the “IART, Good and Very good” value ([2]; 4.375 mg/knee BID, n = 49) was 40.8%. For the same molecule, the “IART, Poor and Very Poor” value ([2]; 4.375 mg/knee BID, n = 49) was 10.2%, the “IART, fair” value ([2]; 4.375 mg/knee BID, n = 49) was 49.0% and the “IART, Good and Very good” value ([2]; 8.75 mg/knee BID, n = 54) was 50.0%. For the same molecule, the “IART, Poor and Very Poor” value ([2]; 8.75 mg/knee BID, n = 54) was 13.0%, the “IART, fair” value ([2]; 8.75 mg/knee BID, n = 54) was 37.0% and the “IART, Good and Very good” value ([2]; 17.5 mg/knee BID, n = 52) was 61.5%. The “IART, Poor and Very Poor” value ([2]; 17.5 mg/knee BID, n = 52) was 3.8% and the “IART, fair” value ([2]; 17.5 mg/knee BID, n = 52) was 34.6%.
